Experimental data published in patent US9708336B2, “Metallo-beta-lactamase inhibitors” (priority 2014, dated 2017).
Where two headings read alike, the source gives them in different places.

What was measured:
NDM-1 = NDM-1 (Klebsiella pneumoniae, UniProt C7C422); test: biochemical; type: biochemical; conditions: read-out: NDM-1 IC50
IMP-1 = IMP-1 (Serratia marcescens, UniProt P52699); test: biochemical; type: biochemical; conditions: read-out: IMP-1 IC50
VIM-1 = VIM-1 (Pseudomonas aeruginosa (strain ATCC 15692 / DSM 22644 / CIP 104116 / JCM 14847 / LMG 12228 / 1C / PRS 101 / PAO1), UniProt A0A0F7KYQ8); test: Enzyme activity: determination of IC50, fluorescence assay with CCF2-FA substrate (VIM-1); type: biochemical
[1] = system: Escherichia coli expressing NDM-1 (CLB30016); test: Antibiotic potentiation activity: synergistic concentration (MITC95) with imipenem, OD600 growth; type: cell-based
Method in brief: (§1)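 Absorbance after a 22–24 h, 35 °C incubation served as the read-out. Wells held bacteria (saline suspension diluted 1:100 into 1.1× CAMHB), imipenem at 4 μg/ml final or optionally 1 μg/ml, and test compound.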

[2] = system: Klebsiella pneumoniae expressing VIM-1 (IHMA599644); test: as above; type: cell-based
Method in brief: as §1

[3] = system: Serratia marcescens expressing IMP-1 (CL5741); test: as above; type: cell-based
Method in brief: as §1

[4] = NDM-1 enzyme, CCF2-FA substrate
[5] = IMP-1 enzyme, CCF2-FA substrate
[6] = VIM-1 IC50, VIM-1 enzyme, CCF2-FA substrate
[7] = (CLB30016, NDM-1), 95% growth inhibition
[8] = Klebsiella pneumoniae IHMA599644 (VIM-1), 95% growth inhibition
[9] = Serratia marcescens CL5741 (IMP-1), 95% growth inhibition
[10] = NDM-1 enzyme, CCF2-FA fluorescence assay
[11] = IMP-1 enzyme, CCF2-FA fluorescence assay
[12] = VIM-1 enzyme, CCF2-FA fluorescence assay, read-out: VIM-1 IC50
[13] = Escherichia coli expressing NDM-1 (CLB30016), 95% growth inhibition
[14] = Klebsiella pneumoniae expressing VIM-1 (IHMA599644), 95% growth inhibition
[15] = Serratia marcescens expressing IMP-1 (CL5741), 95% growth inhibition
[16] = fluorescence assay with CCF2-FA substrate
[17] = fluorescence assay with CCF2-FA substrate, read-out: VIM-1 IC50
[18] = CLB30016 (NDM-1), 95% inhibition of bacterial growth
[19] = IHMA599644 (VIM-1), 95% inhibition of bacterial growth
[20] = CL5741 (IMP-1), 95% inhibition of bacterial growth
[21] = VIM-1 enzyme, CCF2-FA substrate, read-out: VIM-1 IC50
[22] = concentration giving 95% inhibition of bacterial growth

NDM-1, sequence (C7C422 whole entry, looked up, species assumed): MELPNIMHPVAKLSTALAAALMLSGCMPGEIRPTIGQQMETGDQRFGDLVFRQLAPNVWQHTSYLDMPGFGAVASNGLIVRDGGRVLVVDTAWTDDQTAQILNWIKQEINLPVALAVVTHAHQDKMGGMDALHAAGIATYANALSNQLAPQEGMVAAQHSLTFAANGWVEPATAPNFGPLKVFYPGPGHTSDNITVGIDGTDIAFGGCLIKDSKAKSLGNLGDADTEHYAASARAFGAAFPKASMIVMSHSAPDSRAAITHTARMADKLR
IMP-1, sequence (P52699 whole entry, looked up): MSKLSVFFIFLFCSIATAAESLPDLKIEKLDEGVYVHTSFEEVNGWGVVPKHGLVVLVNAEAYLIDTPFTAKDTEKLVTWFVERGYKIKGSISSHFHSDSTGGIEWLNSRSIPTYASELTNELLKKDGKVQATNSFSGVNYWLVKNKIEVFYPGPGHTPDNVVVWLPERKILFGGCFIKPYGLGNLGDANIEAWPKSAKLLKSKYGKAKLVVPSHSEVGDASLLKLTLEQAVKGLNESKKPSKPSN

Compound | IC50 (NDM-1; [4]) [nM] | IC50 (IMP-1; [5]) [nM] | Escherichia coli MITC95 [1, 7] [µM] | Klebsiella pneumoniae MITC95 [2, 8] [µM] | Serratia marcescens MITC95 [3, 9] [µM] | IC50 (NDM-1; [10]) [nM] | IC50 (IMP-1; [11]) [nM] | IC50 (VIM-1; [12]) [nM] | Escherichia coli MITC95 [1, 13] [µM] | Klebsiella pneumoniae MITC95 [2, 14] [µM] | Serratia marcescens MITC95 [3, 15] [µM] | IC50 (VIM-1; [21]) [nM] | also measured
NS(=O)(=O)c1c(C[C@H]2CC[C@H](N)CC2)ccc(-c2ccc(C3CNC3)cc2)c1-c1nn[nH]n1 [Example 595, 4-(((1r,4r)-4-aminocyclohexyl)methyl)-4′-(azetidin-3-yl)-2-(2H-tetrazol-5-yl)-[1,1′-biphenyl]-3-sulfonamide] | 4.34 | 42.6 | 0.7813 | 1.563 | 3.125 | – | – | – | – | – | – | – | IC50 (VIM-1; [6]): 1.3 nM
NS(=O)(=O)c1c(C(F)(F)F)ccc(-c2ccc(C3CCNC3)cc2)c1-c1nn[nH]n1 (stereo not drawn) [Example 443, 4′-(pyrrolidin-3-yl)-2-(2H-tetrazol-5-yl)-4-(trifluoromethyl)-[1,1′-biphenyl]-3-sulfonamide] | – | – | – | – | – | 0.909 | 1.34 | 0.497 | 0.7734 | 0.8906 | 0.09375 | – | –
NCCNC1CCN(c2ccc(C(F)(F)F)c(S(N)(=O)=O)c2-c2nnn[nH]2)CC1 [Example 829, 3-[4-(2-aminoethylamino)-1-piperidyl]-2-(1H-tetrazol-5-yl)-6-(trifluoromethyl)benzenesulfonamide] | – | – | – | – | – | – | – | – | – | – | – | – | IC50 (NDM-1; [16]): 59.8 nM; IC50 (IMP-1; [16]): 93.3 nM; IC50 (VIM-1; [17]): 1.08 nM; Escherichia coli MITC95 [1, 18]: 0.7813 µM; Klebsiella pneumoniae MITC95 [2, 19]: 0.7813 µM; Serratia marcescens MITC95 [3, 20]: 0.9766 µM
NS(=O)(=O)c1c(CC2CCN(CC3CNC3)CC2)ccc(-c2ccc(C3CCNCC3)cc2)c1-c1nn[nH]n1 [Example 471, 4-((1-(azetidin-3-ylmethyl)piperidin-4-yl)methyl)-4′-(piperidin-4-yl)-2-(2H-tetrazol-5-yl)-[1,1′-biphenyl]-3-sulfonamide] | – | – | – | – | – | 2.72 | 8.68 | 2.05 | 0.7813 | 1.563 | 1.563 | – | –
CN(C)C1(C)CN(c2ccc(-c3cccc(S(N)(=O)=O)c3-c3nnn[nH]3)cn2)C1 [Example 625, 3-[6-[3-(dimethylamino)-3-methyl-azetidin-1-yl]-3-pyridyl]-2-(1H-tetrazol-5-yl)benzenesulfonamide] | 37 | 203 | 2.344 | >200 | 12.5 | – | – | – | – | – | – | 1350 | –
Cn1cncc1C1CCN(c2ccnc(S(N)(=O)=O)c2-c2nnn[nH]2)CC1 [Example 230, 4-[4-(1-methyl-1H-imidazol-5-yl)piperidin-1-yl]-3-(1H-tetrazol-5-yl)pyridine-2-sulfonamide] | – | – | – | – | – | – | – | – | – | – | – | – | IC50 (NDM-1; [16]): 206 nM; IC50 (IMP-1; [16]): 797 nM; IC50 (VIM-1; VIM-1 IC50, fluorescence assay with CCF2-FA substrate): 164 nM; Escherichia coli expressing NDM-1 (CLB 30016) MITC95 [1, 22]: 1.563 µM; Klebsiella pneumoniae expressing VIM-1 (IHMA 599644) MITC95 [2, 22]: 37.5 µM; Serratia marcescens expressing IMP-1 (CL5741) MITC95 [3, 22]: 18.75 µM
NS(=O)(=O)c1cccc(-c2ccc(NCCO)nc2)c1-c1nn[nH]n1 [Example 426, 3-(6-((2-hydroxyethyl)amino)pyridin-3-yl)-2-(2H-tetrazol-5-yl)benzenesulfonamide] | – | – | – | – | – | 9.28 | 353 | 260 | 0.4063 | 25 | 9.375 | – | –
NS(=O)(=O)c1c(CC2CCNCC2)ccc(-c2ccc(C3CCN(CC4CNC4)CC3)cc2)c1-c1nn[nH]n1 [Example 470, 4′-(1-(azetidin-3-ylmethyl)piperidin-4-yl)-4-(piperidin-4-ylmethyl)-2-(2H-tetrazol-5-yl)-[1,1′-biphenyl]-3-sulfonamide] | – | – | – | – | – | 27 | 3.23 | 101 | 0.7813 | 12.5 | 1.563 | – | –
NS(=O)(=O)c1cccc(-c2cccc3sc(N[C@H]4CC[C@H](N)CC4)nc23)c1-c1nnn[nH]1 [Example 641, 3-[2-[(4-aminocyclohexyl)amino]-1,3-benzothiazol-4-yl]-2-(1H-tetrazol-5-yl)benzenesulfonamide] | 1.02 | 26.5 | 6.25 | 25 | 25 | – | – | – | – | – | – | 4.46 | –
NS(=O)(=O)c1c(Cc2ccccc2)ccc(-c2ccc(C3CCNCC3)cc2)c1-c1nnn[nH]1 [Example 261] | – | – | – | – | – | 6.59 | 1.72 | 10.2 | 6.25 | 100 | 1.563 | – | –
NC1(CNC2CCC(c3ccc(C(F)(F)F)c(S(N)(=O)=O)c3-c3nnn[nH]3)CC2)CC1 (stereo not drawn) [Example 830, 3-[4-[(1-aminocyclopropyl)methylamino]cyclohexyl]-2-(1H-tetrazol-5-yl)-6-(trifluoromethyl)benzenesulfonamide] | – | – | – | – | – | – | – | – | – | – | – | – | IC50 (NDM-1; [16]): 1.93 nM; IC50 (IMP-1; [16]): 3.82 nM; IC50 (VIM-1; [17]): 0.247 nM; Escherichia coli MITC95 [1, 18]: 0.25 µM; Klebsiella pneumoniae MITC95 [2, 19]: 0.8542 µM; Serratia marcescens MITC95 [3, 20]: 0.724 µM
NS(=O)(=O)c1c(CC2CNC2)ccc(-c2ccc(C3CCNCC3)cc2)c1-c1nn[nH]n1 [Example 469, 4-(azetidin-3-ylmethyl)-4′-(piperidin-4-yl)-2-(2H-tetrazol-5-yl)-[1,1′-biphenyl]-3-sulfonamide] | – | – | – | – | – | 10.7 | 29.7 | 7.65 | 0.7813 | 1.563 | 1.563 | – | –
CN1CCN(Cc2ccc(-c3cccc(S(N)(=O)=O)c3-c3nnn[nH]3)cc2)CC1 [Example 329, 4′-((4-methylpiperazin-1-yl)methyl)-2-(1H-tetrazol-5-yl)-[1,1′-biphenyl]-3-sulfonamide] | – | – | – | – | – | 8.26 | 87.1 | 683 | 0.7813 | 200 | 1.563 | – | –
NS(=O)(=O)c1c(C(F)(F)F)ccc([C@H]2CC[C@H](NC3CC[C@@H]4CNCC[C@H]4C3)CC2)c1-c1nnn[nH]1 (stereo partly drawn) [Example 684, 3-{4-[(4aS,8aS)-decahydroisoquinolin-6-ylamino]cyclohexyl}-2-(1H-tetrazol-5-yl)-6-(trifluoromethyl)benzene sulfonamide] | 38.6 | 75.7 | 3.125 | 12.5 | 6.25 | – | – | – | – | – | – | 10.8 | –
NS(=O)(=O)c1cccc(-c2ccc(C3CCN(CC4CCNC4)CC3)cc2)c1-c1nnn[nH]1 (stereo not drawn) [Example 618, 3-[4-[1-(pyrrolidin-3-ylmethyl)-4-piperidyl]phenyl]-2-(1H-tetrazol-5-yl)benzenesulfonamide] | 11.7 | 16.1 | 0.3906 | 75 | 0.3906 | – | – | – | – | – | – | 345 | –
NS(=O)(=O)c1c(C(F)(F)F)ccc(-c2ccc(S(=O)(=O)CCO)cc2)c1-c1nnn[nH]1 [Example 742, 4′-[(2-hydroxyethyl)sulfonyl]-2-(1H-tetrazol-5-yl)-4-(trifluoromethyl)biphenyl-3-sulfonamide] | 2.01 | 1.84 | 12.5 | 25 | 12.5 | – | – | – | – | – | – | 0.657 | –
NCCN1CCC(Cc2ccc(-c3ccc(C4CNC4)cc3)c(-c3nn[nH]n3)c2S(N)(=O)=O)CC1 [Example 606, 6-[[1-(2-aminoethyl)-4-piperidyl]methyl]-3-[4-(azetidin-3-yl)phenyl]-2-(2H-tetrazol-5-yl)benzenesulfonamide] | 17.7 | 51.4 | 0.7813 | 1.563 | 3.125 | – | – | – | – | – | – | – | IC50 (VIM-1; [6]): 1.12 nM
Nc1ncc(CCc2ccc(C(F)(F)F)c(S(N)(=O)=O)c2-c2nn[nH]n2)cc1CO [Example 508, 3-(2-(6-Amino-5-(hydroxymethyl)pyridin-3-yl)ethyl)-2-(2H-tetrazol-5-yl)-6-(trifluoromethyl)benzenesulfonamide] | 4.55 | 2.37 | 0.8359 | 3.125 | 0.0625 | – | – | – | – | – | – | 1.66 | –
